The record followed here is patent US20150306110A1, “COMPOSITIONS AND METHODS FOR TREATMENT OF INFLAMMATION AND HYPERKERATOTIC LESIONS” (Novelix Pharmaceuticals, Inc., priority 2008, published 2015).

Data set [1] deals with 518A2. In words: Cell growth/survival, 518A2 melanoma cells. It is filed as cell-based. Conditions: Homo sapiens, TP53 mut. As to the method: (§1) Melanoma cell lines used in this study were maintained in Dulbecco's modified Eagle medium (DMEM with 4500 mg/l glucose) supplemented with 10% FCS from Gibco BRL (Life Technologies, Berlin, Germany). The canine mastocytoma cell line C2 (DeVinney et al, Am. J. Respir. Cell Mol. Biol. 3:413-20, 1990) was used in this study, along with additional human cell lines: RD-ES and TC-71 (human Ewing's sarcoma), SAOS2 (human osteosarcoma), HT-1080 (human fibrosarcoma), Caco-2 (human colon adenocarcinoma), A549 (human lung adenocarcinoma), Hep-G2 and Hep-3B (human hepatocellular carcinoma), SK-N-DZ and SK-N-FI (human embryonal neuroblastoma), HTB9 (human bladder cancer), MDA-468 and MCF-7 (human breast cancer) and SW872 liposarcoma. All breast cancer cells were routinely cultured in DMEM/F-12 or in DMEM alone supplemented with 10% FCS at 37° C. in a humidified 5% CO2 atmosphere. RD-ES and TC-71 sarcoma cell lines were maintained in RPMI 1640 (Biochrom KG, Berlin, Germany) containing 10% FCS at 37° C. in a humidified 5% CO2 atmosphere. […]
(§2) Briefly, cells were maintained in standard medium, harvested, and plated at equal densities (750,000 cells in 5 cm tissue culture dishes). […] For the assessment of cell growth, the number of surviving cells was determined using an automated cell counter from Beckman Coulter GmbH (Krefeld, Germany). […]

The test system of data set [2] is A549. Nature of the data set: Cell growth/survival, A549 lung adenocarcinoma cells. The format is cell-based. Conditions: Homo sapiens, TP53 neg. As to the method:
as §1, §2

Data set [3] relates to MDA-MB-468. Nature of the data set: Cell growth/survival, MDA-MB-468 breast cancer cells. It is filed as cell-based. Conditions: Homo sapiens, TP53 mut. The method, then: as §1, §2
In data set [4] the test system is SK-N-DZ. Nature of the data set: Cell growth/survival, SK-N-DZ neuronal cancer cells. It is filed as cell-based. Conditions: Homo sapiens, TP53 mut. As to the method: as §1, §2
The test system of data set [5] is SK-N-FI. In words: Cell growth/survival, SK-N-FI neuronal cancer cells. It is filed as cell-based. Conditions: Homo sapiens, TP53 mut. The method, then: as §1, §2
Data set [6] relates to Hep-3B. In words: Cell growth/survival, Hep-3B hepatocellular carcinoma cells. It is filed as cell-based. Conditions: Homo sapiens, Hep3B, TP53 null. As to the method: as §1, §2
The subject of data set [7] is HAT 1080 (fibrosarcoma). Nature of the data set: Cell growth/survival, HAT 1080 fibrosarcoma cells. It is filed as cell-based. The conditions noted are these: Homo sapiens, TP53 mut. The method, then: as §1, §2
In data set [8] the test system is SW872 (liposarcoma). In words: Cell growth/survival, SW872 liposarcoma cells. The format is cell-based. Conditions: Homo sapiens, TP53 mut. The method, then:
as §1, §2

Data set [9] relates to Osteosarcoma-D17. Nature of the data set: Cell growth/survival, canine osteosarcoma D17 cells. It is filed as cell-based. Conditions: Canis lupus familiaris.
The test system of data set [10] is Melanoma-TLM1. Nature of the data set: Cell growth/survival, canine melanoma TLM1 cells. The format is cell-based. The conditions noted are these: Canis lupus familiaris. The method, then: as §1, §2
In data set [11] the test system is hyperkeratotic palpable lesion with inflammatory components. Nature of the data set: Topical treatment of human hyperkeratotic lesions with inflammatory components. It is filed as in vivo. Conditions: 1% topical solution. The method, then: A 1% topical solution of NVX-207 (20% ethanol, 20% Tween® 80 and 80% water) was applied to human skin to treat a treatment resistant hyperkeratotic palpable lesion with inflammatory components. The NVX-207 was administered once a day on days 1, 2, 3, 10, 11, 12 and 13. Significant improvement (better than 80% reduction) was observed after one day, and additional improvement was observed after a total of six additional treatments applied within 14 days. […] A second identical lesion was treated with the same formulation twice a day for 2 days, and disappeared.

Data set [12] concerns Soft tissue sarcoma. In words: Intra-tumoral NVX-207 in canine patient, soft tissue sarcoma. The conditions noted are these: Patient #1, 11, F; 48 treatment cycles.

As usually defined, the IC50 is the concentration that gives 50% inhibition. A higher IC50 goes with weaker potency in that assay. In the case of `C=C(C)[C@@H]1CC[C@]2(C(=O)OCC(N)(CO)CO)CC[C@]3(C)[C@H](CC[C@@H]4[C@@]5(C)CC[C@H](OC(C)=O)C(C)(C)[C@@H]5CC[C@]43C)[C@@H]12` [NVX-207, 3-O-acetylbetulinic acid-2-amino-3-hydroxy-2-hydroxymethylpropyl ester], the IC50 in [1] is 2.6 µM; in [2], 2.5 µM; in data set [3], 3.6 µM; in data set [4], 2.7 µM; in [5], 3.7 µM; in data set [6], 3.8 µM. Moreover, the IC50 in data set [7] was found to be 5.6 µM; in data set [8] it was 1.8 µM; in data set [9], 3.8 µM; in [10], 3.8 µM. The “Deleterious (toxic) effects on the treated areas (inflammation, redness, swelling)” value in data set [11] is “No deleterious (toxic) effects”. Besides, in [11] (after one day), the “Improvement (reduction) of lesion” value is reported as over 80%. The Side effects entry in [11] (first lesion) is listed as “No reddening, inflammation or any other side effects were observed”. For the same compound, the “Overall Survival” value in [12] is given as 15 months.
